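Compound exposure: 48 hours, 5 concentrations, 96-well plates. Here, GI50 denotes the concentration required for 50% inhibition of growth. TGI marks complete inhibition of growth.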
How the values were obtained:
Test in all cases: inhibition of tumour cell growth, NCI panel, 48 h
HOP-92 NSCLC = system: HOP-92 NSCLC
PC-3 prostate = system: PC-3 prostate
UACC-62 melanoma = system: UACC-62 melanoma
SF-539 CNS = system: SF-539 CNS
NCI-H226 lung = system: NCI-H226 lung
OVCAR-8 ovarian = system: OVCAR-8 ovarian
M14 melanoma = system: M14 melanoma
SK-MEL-2 melanoma = system: SK-MEL-2 melanoma
MALME-3M melanoma = system: MALME-3M melanoma
NCI/ADR-RES ovarian = system: NCI/ADR-RES ovarian

SMILES | GI50 (HOP-92 NSCLC) [µM] | TGI (HOP-92 NSCLC) [µM] | GI50 (PC-3 prostate) [µM] | TGI (PC-3 prostate) [µM] | GI50 (UACC-62 melanoma) [µM] | TGI (UACC-62 melanoma) [µM] | GI50 (SF-539 CNS) [µM] | TGI (SF-539 CNS) [µM] | GI50 (NCI-H226 lung) [µM] | TGI (NCI-H226 lung) [µM] | GI50 (OVCAR-8 ovarian) [µM] | TGI (OVCAR-8 ovarian) [µM] | GI50 (M14 melanoma) [µM] | TGI (M14 melanoma) [µM] | GI50 (SK-MEL-2 melanoma) [µM] | TGI (SK-MEL-2 melanoma) [µM] | GI50 (MALME-3M melanoma) [µM] | TGI (MALME-3M melanoma) [µM] | GI50 (NCI/ADR-RES ovarian) [µM] | TGI (NCI/ADR-RES ovarian) [µM]
CC1SC2(CCCCC2)N(NC(=O)c2[nH]c3ccc(Br)cc3c2-c2ccccc2)C1=O (centres undefined) | 14.6 | 64.8 | 7.45 | 89.2 | 9.66 | > 100 | > 100 | > 100 | 40.7 | > 100 | 17 | 53.8 | 64 | > 100 | > 100 | > 100 | 17.2 | 59.3 |  | 
COc1c(N2CCN(CN3C(=O)C(=O)c4cc(Cl)ccc43)C(C)C2)c(F)cc2c(=O)c(C(=O)O)cn(C3CC3)c12 (centres undefined) |  |  | 10.8 | > 100 | 20.6 | 65.3 | > 100 | > 100 | 71 | > 100 | 51.9 | > 100 | 69.6 | > 100 | > 100 | > 100 |  |  | 76.4 | > 100
COc1ccc(-c2csc(NC(=O)CN3CCN(c4cc5c(cc4F)c(=O)c(C(=O)O)cn5C4CC4)CC3)n2)cc1 | 2.82 | 7.17 | 3.82 | > 100 | 4.18 | > 100 | 3.61 | > 100 | 4.96 | > 100 | 3.2 | > 100 | 4.1 | > 100 | 2.58 | 8.28 | 2.37 | 7.49 |  | 
Cl.Fc1c[c-]c(-c2ccccn2)c(F)c1.[Pt].c1ccc([PH+](C[PH+](c2ccccc2)c2ccccc2)c2ccccc2)cc1 | 0.155 | 0.48 | 0.276 | 1.14 | 0.199 | 0.511 | 0.244 | 0.677 |  |  | 0.303 | 1.73 | 0.314 | 1.02 |  |  |  |  | 1.61 | 5.84
COc1cc(Cl)cc(-c2nn(-c3cccc(NC(=O)Nc4ccc(Cl)c(Cl)c4)c3)cc2-c2ccncc2)c1 |  |  | 1.13 | 5.28 | 2.4 | 16.3 | 2.6 | 13.2 | 3.06 | > 100 | 2.3 | 11.2 | 2.52 | 10.9 | 1.64 | 3.74 | 2.06 | 7.85 | 2.34 | 24.9
O=c1c2cc3c(cc2c2cccc4c2n1CCC4)OCO3 |  | > 100 |  |  |  | > 100 |  | > 100 |  | > 100 |  | > 100 |  | > 100 |  | > 100 |  | > 100 |  | 
CC(=O)NC(C=O)C(O[C@H](C)C(=O)NC(C)C(=O)NC(CCC(N)=O)C(=O)OCc1ccccc1)C(O)C(O)COC(=O)CCNc1c2ccccc2nc2cccc([N+](=O)[O-])c12 (some centres undefined) |  | 5.41 |  |  |  | 10.5 |  | 20.2 |  | 6.89 |  | 18.7 |  | 4.58 |  | 3.05 |  | 4.67 |  | 
O=Cc1ccc(-c2ccc(-c3nc4ccccc4s3)cc2)s1 |  |  | 28.7 | > 100 | 22.2 | > 100 | 30.7 | > 100 | 66.1 | > 100 | 80.9 | > 100 | 54.6 | > 100 | > 100 | > 100 | 52.4 | > 100 | 40.8 | > 100
CCN1C(=NCCO)NS(=O)(=O)c2ccccc21 |  | > 100 |  | > 100 |  | > 100 |  | > 100 |  | > 100 |  | > 100 |  | > 100 |  | > 100 |  |  |  | > 100
Cc1nc2cc(Nc3nc(Nc4ccc(F)cc4)nc(N4CCOCC4)n3)ccc2n1Cc1ccccc1 |  |  | 2.91 | 16.8 |  |  | 3.54 | 14.5 | 5.79 | 24.2 | 4.34 | 23.6 | 3.16 | 8.59 | 2.49 | 4.94 |  |  | 5.22 | 45.4
Cc1ccc(-n2nnnc2-c2cnc(N3CCOCC3)nc2-c2cccc(C(F)(F)F)c2)cc1 |  |  | 1.44 | 3.93 | 1.73 | 25.2 | 1.16 | 2.72 | 1.51 | 10.8 | 2.83 | > 22.5 | 1.08 | 2.69 | > 10.8 | > 50 |  |  | 0.825 | 2.36
COC1CC(N)C(O)C(C)O1 (centres undefined) |  | > 100 |  | > 100 |  | > 100 |  | > 100 |  | > 100 |  | > 100 |  | > 100 |  |  |  | > 100 |  | > 100
COc1ccc(C(=O)C#Cc2c[nH]c(=O)[nH]c2=O)cc1 |  | 41.8 |  |  |  | 32.8 |  | 19.3 |  | 42.4 |  | 32.5 |  | 18 |  | 21.4 |  | 18.7 |  | 

— PubChem BioAssay (NCI)
